Experimental findings from patent publication US9546179B2, “Heterocycle amido alkyloxy substituted quinazoline derivative and use thereof” (priority 2011, dated 2017) are described below.

Molecules are shown by their SMILES. A value given as a limit tells only on which side of the number the result lay.

Broadly, the IC50 is the concentration needed to halve the response being measured. Low readings indicate greater potency in that assay, high ones weaker potency in that assay.

In the test the target is T1, receptor tyrosine kinase EGFR (Homo sapiens, UniProt P00533).
T1 construct: purchased Shanghai 3bio Technology Co., Ltd. Lot No. 4018780925
T1 sequence (P00533 25-1210): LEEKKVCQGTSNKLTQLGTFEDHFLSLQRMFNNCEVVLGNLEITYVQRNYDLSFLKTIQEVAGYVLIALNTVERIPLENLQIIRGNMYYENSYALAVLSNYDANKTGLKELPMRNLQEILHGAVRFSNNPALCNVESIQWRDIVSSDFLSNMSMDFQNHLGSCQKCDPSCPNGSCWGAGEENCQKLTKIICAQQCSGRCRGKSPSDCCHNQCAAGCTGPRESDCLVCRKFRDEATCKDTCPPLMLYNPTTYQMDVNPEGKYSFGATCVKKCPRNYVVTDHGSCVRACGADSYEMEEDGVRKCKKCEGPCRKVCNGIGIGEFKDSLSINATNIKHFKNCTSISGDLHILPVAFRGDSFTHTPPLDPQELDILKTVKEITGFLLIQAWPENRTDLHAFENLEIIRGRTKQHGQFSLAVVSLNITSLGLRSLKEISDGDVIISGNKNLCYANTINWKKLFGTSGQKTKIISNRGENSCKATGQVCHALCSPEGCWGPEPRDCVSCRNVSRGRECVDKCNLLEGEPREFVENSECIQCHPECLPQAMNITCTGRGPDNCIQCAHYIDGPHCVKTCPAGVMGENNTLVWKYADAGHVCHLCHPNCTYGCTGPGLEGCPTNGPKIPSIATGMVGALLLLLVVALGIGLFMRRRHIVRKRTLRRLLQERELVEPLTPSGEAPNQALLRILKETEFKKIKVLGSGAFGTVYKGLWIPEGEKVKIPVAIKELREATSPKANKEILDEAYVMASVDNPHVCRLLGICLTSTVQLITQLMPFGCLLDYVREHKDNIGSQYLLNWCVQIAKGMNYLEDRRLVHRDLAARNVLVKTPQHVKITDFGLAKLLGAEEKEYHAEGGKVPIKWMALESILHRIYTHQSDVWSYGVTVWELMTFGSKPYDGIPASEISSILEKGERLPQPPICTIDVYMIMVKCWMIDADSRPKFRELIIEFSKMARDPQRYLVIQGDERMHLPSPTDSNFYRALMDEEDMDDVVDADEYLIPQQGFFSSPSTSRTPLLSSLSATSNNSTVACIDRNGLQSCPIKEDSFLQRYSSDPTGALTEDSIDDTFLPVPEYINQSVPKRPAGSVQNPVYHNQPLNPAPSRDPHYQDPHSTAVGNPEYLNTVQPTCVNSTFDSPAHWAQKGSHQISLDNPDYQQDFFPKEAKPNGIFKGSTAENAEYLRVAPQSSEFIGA
Description: Inhibitory effect on receptor tyrosine kinase EGFR (ELISA, Poly(Glu, Tyr)4:1, PY99 antibody). Format: biochemical. The settings on record: ATP 4 μM, 1 hour at 37° C. The protocol: Poly(Glu, Tyr)4:1 was diluted into 100 μg/ml by PBS without potassium. Enzyme label plate was coated with 37 μl/well at 37° C. overnight,
The liquid in the wells was removed. The plate was rinsed by T-PBS for 5 minutes, and dried at 37° C. after repeated 3 times.
The testing sample was diluted to the concentration concerned by reaction buffer solution, and added into the wells of the coated enzyme label plate. The concentration diluted should realize 1.0000 μg/ml, 0.1250 μg/ml, 0.0156 μg/ml, 0.00195 μg/ml and 0.00024 μg/ml in the 100 μl reaction.
Adding in ATP solution (4 μM of final concentration) diluted by reaction buffer solution,
Finally, the tyrosine kinase diluted by reaction buffer solution was added, and forming the reaction with 100 μl total volume.
Meanwhile, negative control wells and enzyme-free control wells were prepared. The reaction was kept in the dark wet box for 1 hour at 37° C. The plate was rinsed by T-PBS for three times after the reaction ended, and blocked by 1% BSA […] for 30 min, and then, PY99 antibody (1:1000 diluted by 0.05% PBST with 1% BSA) was added in 100 μl/well. After incubated at 37° C. for 30 minutes, the plate was rinsed by T-PBS for three times, and the goat anti-mouse IgG marked with HRP (1 mg/ml 1:1000 diluted by 0.05% PBST with 1% BSA) was then added in 100 μl/well. After incubated at 37° C. for 30 minutes, the plate was rinsed by T-PBS for three times.
Colorimetric solution OPD was added in 100 μl/well for 20 minutes' reaction in the dark side at the room temperature. Colorimetric substrate solution OPD was the solution of 0.1 mol/L citric acid-disodium hydrogen phosphate buffer (pH 5.0) with 20 mmol/L OPD and 12 mmol/L H2O2 (freshly prepared when using).
50 μl of 2M H2SO4 (2 mol/L sulfuric acid containing 0.1 mol/L sodium sulfate) was added in to terminate the reaction, and the A492 value was read with adjustable wavelength micro late enzyme-labeling instrument VERSAmax.
The inhibition rate of samples is calculated by the following formula: […]
For orientation: An ELISA detects its analyte on a solid surface through an enzyme-linked reagent.
Compound `C#Cc1cccc(Nc2ncnc3cc(OC)c(OCCCN4C5CCC4COC5)cc23)c1` [Example 42, 4-(3′-ethynylphenylamino)-6-[3-(3-oxa-8-azabicyclo[3.2.1]octane-8-yl)-propoxy]-7-methoxyquinazoline] showed an IC50 of 100 to 1000 nM.

The compound `C#Cc1cccc(Nc2ncnc3cc(OC)c(OCCCN4CCC5(CC4)CNC(=O)C5)cc23)c1` [Example 43, 4-(3′-ethynylphenylamino)-6-[3-(2,8-diazaspiro[4.5]decane-3-ketone-8-yl)-propoxy]-7-methoxyquinazoline] had an IC50 of 10 to 100 nM. The result for `C#Cc1cccc(Nc2ncnc3cc(OC)c(OCCCN4CCC5(CC4)CCN(C)C5=O)cc23)c1` [Example 44, 4-(3′-ethynylphenylamino)-6-[3-(2-methyl-2,8-diazaspiro[4.5]decane-3-ketone-8-yl)propoxy]-7-methoxyquinazoline] reads 10 to 100 nM; that for `C#Cc1cccc(Nc2ncnc3cc(OC)c(OCCCN4CC5(CNC(=O)C5)C4)cc23)c1` [Example 45, 4-(3′-ethynylphenylamino)-6-[3-(2,6-diazaspiro[3.4]octane-7-ketone-2-yl)-propoxy]-7-methoxyquinazoline], 10 to 100 nM. The result for `C#Cc1cccc(Nc2ncnc3cc(OC)c(OCCCN4CCC5(CC4)CNC(=O)O5)cc23)c1` [Example 46, 4-(3′-ethynylphenylamino)-6-[3-(1-oxa-3,8-diazaspiro[4.5]decane-2-ketone-8-yl)-propoxy]-7-methoxyquinazoline] reads 10 to 100 nM; that for `C#Cc1cccc(Nc2ncnc3cc(OC)c(OCCCN4CCC5(C4)CN(C)C(=O)O5)cc23)c1` (stereo not shown) [Example 47, 4-(3′-ethynylphenylamino)-6-[3-(3-methyl-1-oxa-3,7-diazaspiro[4.4]nonane-2-ketone-7-yl)-propoxy]-7-methoxyquinazoline], 10 to 100 nM; that for `C#Cc1cccc(Nc2ncnc3cc(OC)c(OCCCN4CCC5(CCN(C(C)=O)C5)C4)cc23)c1` (stereo not shown) [Example 51, 4-(3′-ethynylphenylamino)-6-[3-(7-acetyl-2,7-diazaspiro[4.4]-nonane-2-yl)-propoxy]-7-methoxyquinazoline], 0.1 to 10 nM.

`COc1cc2ncnc(Nc3ccc(F)c(Cl)c3)c2cc1OCCN1CC2(CCOCC2)C1` [Example 53, 4-(3′-chloro-4′-fluorophenylamino)-6-[3-(7-oxa-2-azaspiro[3.5]nonane-2-yl)-oxethyl]-7-methoxyquinazoline]: the IC50 is 10 to 100 nM.

On to `COc1cc2ncnc(Nc3ccc(F)c(Cl)c3)c2cc1OCCN1CCC2(CCNC2=O)C1` (stereo not shown) [Example 55, 4-(3′-chloro-4′-fluorophenylamino)-6-[2-(2,7-diazaspiro[4.4]-nonane-1-ketone-7-yl)-oxethyl]-7-methoxyquinazoline], for which the IC50 fell in the range of 100 to 1000 nM. The result for `COc1cc2ncnc(Nc3ccc(F)c(Cl)c3)c2cc1OCCN1CCC2(CC1)CC(=O)N(C)C2` [Example 56, 4-(3′-chloro-4′-fluorophenylamino)-6-[2-(2-methyl-2,8-diazaspiro[4.5]decane-2-ketone-8-yl)-oxethyl]-7-methoxyquinazoline] reads above 1000 nM. As to `COc1cc2ncnc(Nc3ccc(F)c(Cl)c3)c2cc1OCCN1CCC2(CC1)CNC(=O)O2` [Example 58, 4-(3′-chloro-4′-fluorophenylamino)-6-[2-(1-oxa-3,8-diazaspiro[4.5]decane-2-ketone-8-yl)-oxethyl]-7-methoxyquinazoline], the IC50 fell in the range of 100 to 1000 nM.

With `COc1cc2ncnc(Nc3ccc(F)c(Cl)c3)c2cc1OCCN1CCC2(C1)CN(C)C(=O)O2` (stereo not shown) [Example 59, 4-(3′-chloro-4′-fluorophenylamino)-6-[2-(3-methyl-1-oxa-3,7-diazaspiro[4.4]nonane-2-ketone-7-yl)-oxethyl]-7-methoxyquinazoline], the IC50 fell in the range of 10 to 100 nM. The result for `COc1cc2ncnc(Nc3ccc(F)c(Cl)c3)c2cc1OCCN1CC2(CNC(=O)O2)C1` [Example 60, 4-(3′-chloro-4′-fluorophenylamino)-6-[2-(5-oxa-2,7-diazaspiro[3.4]octane-6-ketone-2-yl)-oxethyl]-7-methoxyquinazoline] reads 100 to 1000 nM.
